Data set [1] relates to cancer of the pancreas. The note with it: previously untreated patients; cited from earlier work.
For data set [2], the system named is pancreatic cancer. To be noted: cited from earlier work.
For data set [3], the system named is cancer cell lines. Briefly: IC50 across several different cancer cell lines. It is filed as cell-based. The note with it: called predicted.
In data set [4] the test system is VEGF. Briefly: VEGF secretion by tumor cells. The format is cell-based. To be noted: FIG. 5.
In data set [5] the test system is cats. The note with it: cited from earlier work.
In data set [6] the test system is HIF-1α. Nature of the data set: HIF-1α induced by L-mimosone under normoxia in Hep3B cells. The format is cell-based. The procedure: Abundance of HIF-1α and β-actin was determined by western blotting.
The test system of data set [7] is A549 Sentinel Line. Briefly: Sentinel Line beta-galactosidase reporter assay (A549). It is filed as cell-based. The note with it: 40 hrs; for reporter activity, Gemcitabine-induced stress response: A549 sentinel line, FACS, FIG. 7; for cell death / reporter activity: Sentinel Lines; for reporter activity: FIG. 6. The procedure: The expression level of beta-galactosidase gene in sentinel lines was determined by using a fluorescent substrate fluorescein di-B-D-Galactopyranside (FDG, Marker Gene Tech, #M0250) introduced into cells by hypotonic shock. Cleavage by beta-galactosidase results in the production of free fluorescein, which is unable to cross the plasma membrane and is trapped inside the beta-gal positive cells. Briefly, the cells to be analyzed are trypsinized, and resuspended in PBS containing 2 mM FDG (diluted from a 10 mM stock prepared in 8:1:1 mixture of water: ethanol: DMSO). The cells were then shocked for 4 minutes at 37° C. and transferred to FACS tubes containing cold 1×PBS on ice. Samples were kept on ice for 30 minutes and analyzed by FACS in FL1 channel.
Sentinel Line cells with beta-galactosidase reporter gene were plated at 1×10^5 cells/10 cm dish. […] After 40 hrs, the cells were trypsinized and the expression level of reporter gene was determined by FDG loading.
The reporter activity was measured by FACS analysis.
For orientation: In a reporter assay the amount or activity of a reporter protein is the signal.

For data set [8] the following is noted: cited from earlier work.
For data set [9] the following is noted: cited from earlier work. The source holds these as a separate data set.
Data set [10] deals with pancreatic cancer. To be noted: cited from earlier work. This is another data set of the same source.
Data set [11] has as its system cancer of the pancreas. To be noted: previously treated with 5-FU; cited from earlier work.
Data set [12] deals with rat mammary tumors induced by DMBA. To be noted: relative to control group; cited from earlier work.
The subject of data set [13] is pancreatic carcinoma cells carrying a K-Ras mutation. To be noted: cited from earlier work.
In data set [14] the test system is pancreatic lesions. The note with it: cited from earlier work.
The target in data set [15] is farnesyl protein transferase (FPTase) (Homo sapiens, UniProt P49354+P49356). The note with it: cited from earlier work.
The target in data set [16] is geranylgeranyl protein transferase (GGPTase) (Homo sapiens, UniProt P49354+P53609). To be noted: cited from earlier work.
Data set [17] relates to pancreatic tumors. To be noted: cited from earlier work.
The subject of data set [18] is end-stage pancreatic cancer. The note with it: cited from earlier work.
Data set [19] relates to advanced pancreatic cancer. To be noted: in vivo; cited from earlier work.
Data set [20] concerns pancreatic cancer. To be noted: 40 patients; cited from earlier work.
Data set [21] relates to C38 colon adenocarcinoma and PO3 pancreatic ductal adenocarcinoma. The note with it: in vivo; cited from earlier work.

Converted amounts (≈) assume the structure as drawn. Like-named read-outs stand apart in the source and are kept apart here. Bounds are passed on as bounds.

Sequence of farnesyl protein transferase (FPTase) (P49356 whole entry, one chain of several): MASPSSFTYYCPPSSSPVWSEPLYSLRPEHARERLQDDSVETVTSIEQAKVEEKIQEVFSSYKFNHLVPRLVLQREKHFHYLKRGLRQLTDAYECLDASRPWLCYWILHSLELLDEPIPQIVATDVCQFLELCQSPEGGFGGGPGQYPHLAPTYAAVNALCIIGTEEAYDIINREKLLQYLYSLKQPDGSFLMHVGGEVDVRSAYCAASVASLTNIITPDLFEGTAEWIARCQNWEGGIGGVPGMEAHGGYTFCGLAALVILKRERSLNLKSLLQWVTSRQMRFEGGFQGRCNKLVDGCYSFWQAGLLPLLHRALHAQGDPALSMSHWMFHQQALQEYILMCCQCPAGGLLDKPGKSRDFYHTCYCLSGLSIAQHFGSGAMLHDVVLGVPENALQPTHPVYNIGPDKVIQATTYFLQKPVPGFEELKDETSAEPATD
Sequence of geranylgeranyl protein transferase (GGPTase) (P53609 whole entry, one chain of several): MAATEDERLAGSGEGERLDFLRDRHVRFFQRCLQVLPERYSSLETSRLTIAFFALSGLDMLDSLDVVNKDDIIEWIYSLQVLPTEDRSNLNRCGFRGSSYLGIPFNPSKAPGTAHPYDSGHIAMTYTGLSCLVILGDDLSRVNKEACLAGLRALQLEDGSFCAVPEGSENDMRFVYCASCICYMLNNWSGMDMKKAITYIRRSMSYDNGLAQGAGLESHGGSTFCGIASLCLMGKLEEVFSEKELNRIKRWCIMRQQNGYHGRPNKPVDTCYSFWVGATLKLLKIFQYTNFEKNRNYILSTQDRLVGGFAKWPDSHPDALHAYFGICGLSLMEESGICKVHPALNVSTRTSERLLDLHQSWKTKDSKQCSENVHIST

As for `O=c1[nH]cc(F)c(=O)[nH]1` [5-FU, 5-fluorouracil], the “patients alive at 1 year after starting therapy” value in [1] was 1 in 50. For the same compound, the response rate entry in [2] is “less than 20%”.
For `C[C@@H]1O[C@@H](O[C@H]2C[C@@H](O)[C@]3(CO)[C@H]4[C@H](O)C[C@]5(C)[C@@H](C6=CC(=O)OC6)CC[C@]5(O)[C@@H]4CC[C@]3(O)C2)[C@H](O)[C@H](O)[C@H]1O` [BNC-1, ouabain], the IC50 (as a rule, the concentration at which inhibition is half-maximal) in data set [3] is 9 to 35 ng/mL (≈ 0.0154 to 0.0599 µM). In addition, the “secretion of the angiogenesis factor VEGF” value in data set [4] is “inhibits”. Further, the “toxicity, duodenal administration” value in data set [5] was 5.3 mg/kg. Besides, for the setting “mice”, the “toxic serum concentration at day 1” value is listed as “about 50+21 ng/ml”. Also, the “therapeutic serum concentration required to achieve >60% TGI” value (steady state delivery in mice) was “about 20+15 ng/ml”.
For `C[C@@H]1OC(OC2C=C3CCC4C(CC[C@]5(C)[C@@H](c6ccc(=O)oc6)CC[C@]45O)[C@@]3(C)CC2)[C@H](O)[C@H](O)[C@H]1O` (stereo partly drawn) [BNC-4, proscillaridin], in data set [6] (200 μM L-mimosone, 18 h), the “HIF-1α accumulation by L-mimosone” value is reported as “eliminated HIF-1α accumulation”. For the same compound, in [6] (at the low concentration tested), the “HIF-1α accumulation by L-mimosone” value is reported as “did not appear to have an effect”. In addition, the IC50 in [3] was 2 to 8 ng/mL (≈ 0.00377 to 0.0151 µM). In addition, in data set [4], the “secretion of the angiogenesis factor VEGF” value is “inhibits”. Moreover, the “toxicity, duodenal administration” value in [5] was 1.05 mg/kg. For the setting “mice”, the “serum levels at the maximum toxic dose (MTD)” value is listed as “about 518 (±121) ng/ml” and the “toxic serum concentration at day 1” value is “about 518+121 ng/ml”. Also, the “steady state serum level at which anti-tumor activity was observed” value (xenograft nude mouse model) is given as “about 50 ng/mL”. Moreover, in data set [7], the “reporter activity, Gemcitabine-induced stress response” value is reported as “significantly shift the reporter activity to the left”. In data set [8] (0.5 mg/d i.v. for 4 d before surgery, 50 patients), the “tolerance in cancer patients” value is recorded as “well tolerated by all cancer patients”. Also, the “patients taken off treatment for negative side effects” value in data set [8] (1067 patients, up to 3 years) is given as 0.7%. Besides, the “reported cases in which therapy could be resumed” value in [8] (after a brief hiatus) is above 95%. Further, the “doses producing typical intoxication symptoms” value in data set [8] (healthy individuals) is reported as “above 4 mg p.o./d”. Besides, in data set [9] (in vivo), the “drug and metabolites excreted by the bile” value is recorded as “Greater than 99%”. Also, the “measurable unconjugated drug as share of administered quantity” value in data set [9] (oral administration) was 7%. In addition, in [9] (oral), the “time of second, longer-lasting peak” value was “about 1 hour” and the “time of third peak after dosing” value is “about 10 hours”.
Turning to `N.N.O=C([O-])C1(C(=O)[O-])CCC1.[Pt+2]` [Carboplatin], in [7], the cell death result is on record as “increases” and the reporter activity entry was “increases”.
On to `Nc1ccn([C@@H]2O[C@H](CO)[C@@H](O)C2(F)F)c(=O)n1` [Gemcitabine], for which, in data set [10] (gemcitabine alone), the “patients with clinical benefit” value is listed as 20-30%. Moreover, the 1-year survival rate in data set [10] (human, in vivo) is recorded as 18%. Besides, in data set [1], the “patients alive at 1 year after starting therapy” value is on record as 1 in 5 and the “survival of the typical patient” value is listed as “about 6 months”. The “reporter activity, Gemcitabine-induced stress response” value in data set [7] is on record as “elevated reporter activity”. In data set [11], the “patients alive at 1 year” value is listed as 1 in 25, the “patients with symptom improvement for at least 1 month” value is given as 1 in 4 and the “survival of the typical patient” value is reported as 4 months.
Consider `CC(C)Cc1ccc(C(C)C(=O)O)cc1` (stereo not drawn) [Ibuprofen], for which, in [12], the “reduction in incidence of breast tumors” value is given as 40% and the “reduction in multiplicity of breast tumors” value is given as 52%.
On to `COc1cc2ncnc(Nc3ccc(F)c(Cl)c3)c2cc1OCCCN1CCOCC1` [Iressa], for which, in [7], the reporter activity entry was “reduction in reporter activity”.
As for `C=C(C)[C@H]1CC=C(C)CC1` [Limonene], the growth reduction entry in data set [13] is “approximately 50%”.
On to `CN(C)C(=N)N=C(N)N` [Metformin], for which the “hyperplastic and premalignant lesions” value in data set [14] (8.6 in high-fat group) was 1.8 lesions per hamster. Also, in [14] (drinking water for life, 50% in high-fat group), the malignant lesions entry is recorded as “none were found”.
As to `C=C(C)[C@@H]1CC=C(CO)CC1` [Perillyl alcohol], the “inhibition of Ras prenylation” value in data set [15] is 17%. Moreover, the “inhibition of RhoA prenylation” value in data set [16] is 28%. Also, in data set [17] (hamster, in vivo), the tumors completely regressed was 16%. The “growth of pancreatic tumors” value in [17] (versus controls) is on record as “less than half that of controls”.
Take `CC[C@@]1(O)C(=O)OCc2c1cc1n(c2=O)Cc2cc3c([N+](=O)[O-])cccc3nc2-1` [Rubitecan, 9-nitrocamptothecin]: in data set [18] (60 patients), the nonresponders is given as 36.6%, the “patients who responded favorably” value is 31.7% and the “patients with stabilized disease” value is 31.7%. Also, the survival in [18] (nonresponders) is listed as 6.8 months. The median survival in data set [18] (responders) is given as 18.6 months. Further, the median survival in data set [18] (stabilized disease) is given as 9.7 months.
Regarding `Cn1c(=O)c2c(ncn2C)n(C)c1=O` [caffeine], in data set [19], the “median duration of survival” value is reported as 5 months and the “patients with objective responses” value is 5.5%.
For `CC(=O)O[C@@]12CO[C@@H]1C[C@H](O)[C@@]1(C)C(=O)[C@H](O)C3=C(C)[C@@H](OC(=O)[C@H](O)[C@@H](NC(=O)OC(C)(C)C)c4ccccc4)C[C@@](O)([C@@H](OC(=O)c4ccccc4)[C@H]21)C3(C)C` [docetaxel, Docetaxel], in [20], the “median duration of response” value is listed as 5.1 months, the partial response is 15% and the stable disease is listed as 38%. Further, in data set [21], the complete regressions is on record as 80%.
`O=C1c2c(O)ccc(O)c2C(=O)c2c(NCCNCCO)ccc(NCCNCCO)c21` [mitoxanthrone, mitoxantrone]: in data set [7], the cell death result is reported as “increases” and the reporter activity result is on record as “increases”.
For `CC(=O)O[C@H]1C(=O)[C@@]2(C)[C@H]([C@H](OC(=O)c3ccccc3)[C@]3(O)C[C@H](OC(=O)[C@H](O)[C@@H](NC(=O)c4ccccc4)c4ccccc4)C(C)=C1C3(C)C)[C@]1(OC(C)=O)CO[C@@H]1C[C@@H]2O` [paclitaxel], in data set [7], the cell death result is reported as “increases” and the reporter activity result was “increases”.

Values taken from patent US20070105790A1, “Pancreatic cancer treatment using Na+/K+ ATPase inhibitors” (Bionaut Pharmaceuticals, Inc., priority 2004, published 2007).
